# US20240358672A1, “APPLICATION OF GENISTEIN AND ITS PHOSPHATE ESTER DERIVATIVE AND PHARMACEUTICAL COMPOSITION COMPRISING THE SAME” (National Taiwan University, priority 2023, published 2024)
# Columns and labels:
# hiPSC-ECs [1] = experiment: CellROX oxidative stress assay / ROS-Glo H2O2 assay in hiPSC-ECs; settings: 5 μM Δ^9-THC alone, 48 hours
# hiPSC-ECs [2] = experiment: CellTiter-Glo cell viability, hiPSC-ECs; settings: various concentrations, 24 or 48 hours
# HUVECs = experiment: qPCR gene expression in HUVECs; settings: 5 μM Δ^9-THC, 48 hours, normalized to GAPDH
# [3] = In vivo fluorescence imaging (IVIS) biodistribution; settings: inferred from BODIPY517/547-genistein distribution
# Protocol: High-magnification images of the green-boxed area are shown with the scale bar at 100 mm. […] Total cell lysates were prepared, and the expression of phosphorylated NF-κB and NF-κB was analyzed by western blot analysis. Immunoblots were quantified by ImageJ software (left panel). […] The in vivo fluorescence images were detected by the IVIS Spectrum at indicated time points. All mice were sacrificed at 48 hours, and major organs were collected and then fixed using formalin (left panel). Fluorescence images were quantified using the IVIS imaging system. […] Images of the brain, heart and lung, thoracic aorta, liver, spleen, kidney, intestine, colon, and blood were obtained from mice (n=5) (right panel). Fluorescence images were quantified using the ImageJ software (middle bottom).
SMILES,cellular oxidative stress (CellROX) (hiPSC-ECs [1]),cytotoxicity (cell viability) (hiPSC-ECs [2]),antioxidant-related gene expression (HUVECs),expression of inflammation-related genes (HUVECs),blood-brain barrier (BBB) penetration [3]
"CCCCCc1cc(O)c2c(c1)OC(C)(C)[C@@H]1CCC(C)=C[C@@H]21 [Δ^9-THC, Δ^9-tetrahydrocannabinol]",induced cellular oxidative stress,induced cytotoxicity,reduced the antioxidant-related gene expression,induced the expression of inflammation-related genes,–
O=c1c(-c2ccc(O)cc2)coc2cc(O)cc(O)c12 [genistein],–,–,–,–,poor blood-brain barrier (BBB) penetration
